Assay results published in US9580427B2, “Kinase inhibitors” (The Regents of the University of California, priority 2011, dated 2017).

biological target: BTK (Homo sapiens, UniProt Q06187); assay: Reversibility of binding: compound in solution before and after perturbation of the target (HPLC-MS/MS); details: after 5 M guanidine hydrochloride denaturation and trypsin digestion
Procedure: The following approach was developed to differentiate compounds that form irreversible bonds with their targets, such as acrylamide compounds, from compound that bind reversibly. […] The reactions were then treated with perturbations including both denaturation with 5 M guanidine hydrochloride and digestion with trypsin, disrupting proper folding of the target. […] The concentration of compound in solution was assessed both preceding and following perturbation using high performance liquid chromatography (HPLC) coupled to tandem mass spectrometry.

Chain of BTK (Q06187 whole entry): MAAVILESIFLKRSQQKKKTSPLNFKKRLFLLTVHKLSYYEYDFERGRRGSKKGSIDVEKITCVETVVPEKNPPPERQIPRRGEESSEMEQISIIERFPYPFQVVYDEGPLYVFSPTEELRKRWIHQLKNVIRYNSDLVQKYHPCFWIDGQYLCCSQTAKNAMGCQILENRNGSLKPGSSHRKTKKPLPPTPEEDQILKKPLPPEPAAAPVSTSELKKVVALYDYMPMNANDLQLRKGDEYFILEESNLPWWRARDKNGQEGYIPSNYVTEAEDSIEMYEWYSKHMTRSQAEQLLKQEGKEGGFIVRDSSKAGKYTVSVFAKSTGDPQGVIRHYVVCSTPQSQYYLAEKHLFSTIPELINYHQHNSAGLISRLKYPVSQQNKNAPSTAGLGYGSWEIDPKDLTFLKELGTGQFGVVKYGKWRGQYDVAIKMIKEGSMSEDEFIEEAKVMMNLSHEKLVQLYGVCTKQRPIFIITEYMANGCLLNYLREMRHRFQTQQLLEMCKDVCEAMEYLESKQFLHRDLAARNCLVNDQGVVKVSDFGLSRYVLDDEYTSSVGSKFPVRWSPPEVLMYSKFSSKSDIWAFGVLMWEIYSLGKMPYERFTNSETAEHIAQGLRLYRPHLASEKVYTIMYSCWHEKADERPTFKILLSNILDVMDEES

| Structure (SMILES) | Compound in solution in the denatured or digested state? |
| --- | --- |
| N#C/C(=C\C1CC1)C(=O)N1CCCC(Cn2nc(-c3ccc(Oc4ccccc4)cc3)c3c(N)ncnc32)C1 (centres unmarked) [drawing 187] | yes |

same assay, conditions: protein target in excess over compound, native state

| Structure (SMILES) | Compound in solution in the native state? |
| --- | --- |
| N#C/C(=C\C1CC1)C(=O)N1CCCC(Cn2nc(-c3ccc(Oc4ccccc4)cc3)c3c(N)ncnc32)C1 (centres unmarked) [drawing 187] | no |

biological target: T1, Btk (human, full length) (Homo sapiens, UniProt Q06187); assay: Btk in vitro kinase activity assay (32P-ATP, poly[Glu:Tyr]); assay type: biochemical; details: 30 min pre-incubation with inhibitor, 5 nM Btk
T1 construct: Btk (human, full length) was purchased (Invitrogen, catalog number PV3363); purchased Invitrogen PV3363
T1 sequence (Q06187 whole entry): as above
Procedure: General Procedure for Btk In Vitro Kinase Activity Assay.
Btk (human, full length) was purchased (Invitrogen, catalog number PV3363) and used following a procedure modified from the product literature. […] Subsequently, Btk (5 nM final concentration) in kinase assay buffer supplemented with BSA (0.1 mg/mL) was pre-incubated with inhibitors (six or ten concentrations, in duplicate, 5% DMSO final concentration) for 30 minutes at room temperature. Kinase reactions were initiated by the addition of 0.16 μCi/μL of γ-^32P-ATP (6000 Ci/mmol, NEN) and 0.2 mg/mL substrate (poly[Glu:Tyr], 4:1 Glu:Tyr) and incubated for 30 minutes at room temperature. Kinase activity was determined by spotting 5 μL of each reaction onto sheets of phosphocellulose. Each blot was washed once with 10% AcOH solution, twice with 0.1% H3PO4 solution, and once with MeOH (5-10 minutes per wash). Dried blots were exposed for 30 minutes to a storage phosphor screen and scanned by a Typhoon imager (GE Life Sciences). The data were quantified using ImageQuant (v. 5.2, Molecular Dynamics) and plotted using GraphPad Prism 4.0 software.

| Structure (SMILES) | IC50 [nM] |
| --- | --- |
| N#C/C(=C\C1CC1)C(=O)N1CC[C@@H](n2nc(-c3ccc(Oc4ccccc4)cc3)c3c(N)ncnc32)C1 | < 1000 |
| N#C/C(=C\C1CC1)C(=O)N1CC[C@H](n2nc(-c3ccc(Oc4ccccc4)cc3)c3c(N)ncnc32)C1 | < 1000 |
| N#C/C(=C\C1CC1)C(=O)N1CCC(n2nc(-c3ccc(Oc4ccccc4)cc3)c3c(N)ncnc32)CC1 | < 1000 |
| CC(C)(/C=C(\C#N)C(=O)N1CCC[C@@H](n2nc(-c3ccc(Oc4ccccc4)cc3)c3c(N)ncnc32)C1)CO | < 1000 |
| N#C/C(=C\C1CC1)C(=O)N1CCCC(Cn2nc(-c3ccc(Oc4ccccc4)cc3)c3c(N)ncnc32)C1 (centres unmarked) [drawing 184] | < 1000 |

Other lines, results leading:

| IC50 [nM] | Structure (SMILES) |
| --- | --- |
| < 1000 | N#C/C(=C\C1CC1)C(=O)N1CCC(Cn2nc(-c3ccc(Oc4ccccc4)cc3)c3c(N)ncnc32)CC1 |
| < 1000 | N#C/C(=C\C1CC1)C(=O)N[C@H]1CC[C@@H](n2nc(-c3ccc(Oc4ccccc4)cc3)c3c(N)ncnc32)CC1 |
| < 100 | N#C/C(=C\C1CC1)C(=O)N1CC[C@@H](n2nc(-c3ccc(Cl)cc3)c3c(N)ncnc32)C1 |
| < 100 | N#C/C(=C\C1CC1)C(=O)N1CCCC(n2nc(-c3ccc(Cl)cc3)c3c(N)ncnc32)C1 (centres unmarked) |
| < 100 | CN(C)C(C)(C)/C=C(\C#N)C(=O)N1CCC[C@@H](n2nc(-c3ccc(Oc4ccccc4)cc3)c3c(N)ncnc32)C1 |
| < 100 | N#C/C(=C\c1ccccc1)C(=O)N1CCCC(n2nc(-c3ccc(Oc4ccccc4)cc3)c3c(N)ncnc32)C1 (centres unmarked) |
| < 100 | N#C/C(=C\c1ccccc1Cl)C(=O)N1CCCC(n2nc(-c3ccc(Oc4ccccc4)cc3)c3c(N)ncnc32)C1 (centres unmarked) |
